Tests used:
Rattus norvegicus [1] = assay: Hypoglycemic activity in fasted Sprague-Dawley rat assessed as reduction of blood glucose level at 88 mg/kg, po measured at 2 hrs relative to control; format: functional; set-up: scale not given: the % may be the effect or the level left
Rattus norvegicus [2] = assay: Hypoglycemic activity in glucose loaded Sprague-Dawley rat assessed as reduction of blood glucose level at 50 mg/kg, po measured at 1 hr relative to control; format: functional; set-up: scale not given: the % may be the effect or the level left
Rattus norvegicus [3] = assay: Hypoglycemic activity in glucose loaded Sprague-Dawley rat assessed as reduction of blood glucose level at 88 mg/kg, po measured at 1.5 hrs relative to control; format: functional; set-up: scale not given: the % may be the effect or the level left
Mus musculus [4] = assay: Analgesic activity in po dosed Swiss-Webster mouse assessed as reduction of acetylcholine-induced writhing; format: functional
Rattus norvegicus [5] = assay: Hypoglycemic activity in fasted Sprague-Dawley rat assessed as reduction of blood glucose level at 50 mg/kg, po measured at 0.5 hrs relative to control; format: functional; set-up: scale not given: the % may be the effect or the level left
Rattus norvegicus [6] = assay: Hypoglycemic activity in glucose loaded Sprague-Dawley rat assessed as reduction of blood glucose level at 50 mg/kg, po measured at 1.5 hrs relative to control; format: functional; set-up: scale not given: the % may be the effect or the level left
Rattus norvegicus [7] = assay: Hypoglycemic activity in Sprague-Dawley rat assessed as reduction of blood glucose level at 88 mg/kg, po by glucagon-impaired glucose disposal test relative to control; format: functional; set-up: scale not given: the % may be the effect or the level left; details: 88 mg/kg
Rattus norvegicus [8] = assay: Hypoglycemic activity in glucose loaded Sprague-Dawley rat assessed as reduction of blood glucose level at 88 mg/kg, po measured at 0.5 hrs relative to control; format: functional; set-up: scale not given: the % may be the effect or the level left
Rattus norvegicus [9] = assay: Toxicity in Sprague-Dawley rat assessed as severe convulsion at 240 mg/kg, sc; format: organism-based; set-up: dose 240 mg/kg, route subcutaneous; details: in vivo
Rattus norvegicus [10] = assay: Hypoglycemic activity in glucose/glycogen loaded Sprague-Dawley rat assessed as reduction of blood glucose level at 88 mg/kg, po measured at 1 hr relative to control; format: functional; set-up: scale not given: the % may be the effect or the level left
Rattus norvegicus [11] = assay: Hypoglycemic activity in fasted Sprague-Dawley rat assessed as reduction of blood glucose level at 50 mg/kg, po measured at 2 hrs relative to control; format: functional; set-up: scale not given: the % may be the effect or the level left
Rattus norvegicus [12] = assay: Toxicity in Sprague-Dawley rat assessed as induction of physical dependence by measuring occurrence of abstinence signs at 100 mg/kg/24 hrs, ip administered as 2 days of infusion prior to naloxone-precipitated withdrawal; format: organism-based; set-up: route intraperitoneal; details: in vivo
Rattus norvegicus [13] = assay: Toxicity in morphine-treated Sprague-Dawley rat assessed as catalepsy at 32 mg/kg, po administered 15 mins prior to testing; format: organism-based; set-up: dose 32 mg/kg, route oral; details: in vivo, 0.25 h
Rattus norvegicus [14] = assay: Hypoglycemic activity in fasted Sprague-Dawley rat assessed as reduction of blood glucose level at 88 mg/kg, po measured at 0.5 hrs relative to control; format: functional; set-up: scale not given: the % may be the effect or the level left
Canis familiaris [15] = assay: Toxicity in dog assessed as stopped breathing at 100 mg/kg, im measured after 3 mins; format: organism-based, Canis lupus familiaris; set-up: dose 100 mg/kg, route intramuscular; details: in vivo, 0.05 h
Rattus norvegicus [16] = assay: Toxicity in Sprague-Dawley rat assessed as catalepsy at 32 mg/kg, po administered 15 mins prior to testing; format: organism-based; set-up: dose 32 mg/kg, route oral; details: in vivo, 0.25 h
Rattus norvegicus [17] = assay: Hypoglycemic activity in glucose/glycogen loaded Sprague-Dawley rat assessed as reduction of blood glucose level at 88 mg/kg, po measured at 1.5 hrs relative to control; format: functional; set-up: scale not given: the % may be the effect or the level left
Rattus norvegicus [18] = assay: Toxicity in po dosed Sprague-Dawley rat assessed as catalepsy administered 15 mins prior to testing; format: organism-based; details: in vivo, 0.25 h
Canis familiaris [19] = assay: Toxicity in nalorphine-treated dog assessed as reduction of pulmonary ventilation rate at 100 mg/kg, im measured within 1 min; format: organism-based, Canis lupus familiaris; set-up: dose 100 mg/kg, route intramuscular; details: in vivo
Rattus norvegicus [20] = assay: Hypoglycemic activity in glucose loaded Sprague-Dawley rat assessed as reduction of blood glucose level at 50 mg/kg, po measured at 2 hrs relative to control; format: functional; set-up: scale not given: the % may be the effect or the level left
Mus musculus [21] = assay: Toxicity in po dosed Swiss-Webster mouse assessed as stimulation of straub tail after 15 to 25 mins; format: organism-based; details: in vivo
Rattus norvegicus [22] = assay: Hypoglycemic activity in fasted Sprague-Dawley rat assessed as reduction of blood glucose level at 88 mg/kg, po measured at 1.5 hrs relative to control; format: functional; set-up: scale not given: the % may be the effect or the level left
Canis familiaris [23] = assay: Toxicity in dog assessed as reduction of pulmonary ventilation rate at 100 mg/kg, im measured within 5 mins; format: organism-based, Canis lupus familiaris; set-up: dose 100 mg/kg, route intramuscular; scale not given: the % may be the effect or the level left; details: in vivo
[24] = Drug metabolism in glucose loaded Sprague-Dawley rat urine assessed as formation of (7)- (exo,exo)-methyl 2-(thiophen-2-yl)-8-azabicyclo[3.2.1]octane-3-carboxylate hydrochloride at 20 mg, po administered 3 to 6 hrs measured for 24 hrs by TLC/mass spectrographic analysis; format: ADME, organism-based; details: in vivo
Rattus norvegicus [25] = assay: Narcotic analgesic activity in po dosed fasted Sprague-Dawley rat measured at 15 mins by D'Amour-Smith tail-flick test; format: functional; details: 0.25 h
Rattus norvegicus [26] = assay: Hypoglycemic activity in fasted Sprague-Dawley rat assessed as reduction of blood glucose level at 50 mg/kg, po measured at 1.5 hrs relative to control; format: functional; set-up: scale not given: the % may be the effect or the level left
Rattus norvegicus [27] = assay: Hypoglycemic activity in glucose loaded Sprague-Dawley rat assessed as reduction of glucose level per 100 mL of blood at 88 mg/kg, po measured at 2 hrs (reference value: 99 +/- 2 mg/100 mL); format: functional
Rattus norvegicus [28] = assay: Toxicity in Sprague-Dawley rat assessed as induction of physical dependence by measuring occurrence of abstinence signs administered as infusion at 0.3 log interval doses up to maximum tolerated dose 800 mg/kg/24 hrs, ip for 6 days prior to abrupt withdrawal; format: organism-based; set-up: route intraperitoneal; details: in vivo
Mus musculus [29] = assay: Toxicity in naloxone hydrochloride-treated Swiss-Webster mouse assessed as stimulation of straub tail at 300 mg/kg, po after 15 to 25 mins; format: organism-based; set-up: dose 300 mg/kg, route oral; details: in vivo
Rattus norvegicus [30] = assay: Narcotic analgesic activity in po dosed fasted Sprague-Dawley rat measured at 60 mins by D'Amour-Smith tail-flick test; format: functional; details: Rattus norvegicus, Sprague-Dawley, Tail, po, 1 h; read-out: ED50
Canis familiaris [31] = assay: Toxicity in dog assessed as effect on pulmonary ventilation rate at 150 mg/kg, im measured after 4 hrs; format: organism-based, Canis lupus familiaris; set-up: dose 150 mg/kg, route intramuscular; details: in vivo
Canis familiaris [32] = assay: Toxicity in dog assessed as reduction of pulmonary ventilation rate at 100 mg/kg, im measured within 20 mins relative to control; format: organism-based, Canis lupus familiaris; set-up: dose 100 mg/kg, route intramuscular; scale not given: the % may be the effect or the level left; details: in vivo
Canis familiaris [33] = assay: Toxicity in nalorphine-treated dog assessed as stopped breathing at 100 mg/kg, im measured after 3 mins; format: organism-based, Canis lupus familiaris; set-up: dose 100 mg/kg, route intramuscular; details: in vivo, 0.05 h
Rattus norvegicus [34] = assay: Hypoglycemic activity in glucose/glycogen loaded Sprague-Dawley rat assessed as reduction of blood glucose level at 88 mg/kg, po measured at 0.5 hrs relative to control; format: functional; set-up: scale not given: the % may be the effect or the level left
Rattus norvegicus [35] = assay: Toxicity in Sprague-Dawley rat assessed as induction of morphine physical dependence by measuring occurrence of abstinence signs at 32 times of morphine dose 12.5 mg/kg/24 hrs administered on day 6 post morphine withdrawal; format: organism-based; details: in vivo
Rattus norvegicus [36] = assay: Hypoglycemic activity in glucose loaded Sprague-Dawley rat assessed as reduction of blood glucose level at 88 mg/kg, po measured at 1 hr relative to control; format: functional; set-up: scale not given: the % may be the effect or the level left
Mus musculus [37] = assay: Analgesic activity in sc dosed Swiss-Webster mouse assessed as reduction of acetylcholine-induced writhing; format: functional; details: Mus musculus, Swiss-Webster, sc; read-out: ED50
Rattus norvegicus [38] = assay: Hypoglycemic activity in fasted Sprague-Dawley rat assessed as reduction of blood glucose level at 50 mg/kg, po measured at 1 hr relative to control; format: functional; set-up: scale not given: the % may be the effect or the level left
Rattus norvegicus [39] = assay: Hypoglycemic activity in glucose/glycogen loaded Sprague-Dawley rat assessed as reduction of glucose level per 100 mL of blood at 88 mg/kg, po measured at 2 hrs (reference value: 102 +/- 7 mg/100 mL); format: functional
Rattus norvegicus [40] = assay: Toxicity in Sprague-Dawley rat assessed as catalepsy at 32 mg/kg, po administered 15 mins prior to testing in presence of naloxone hydrochloride; format: organism-based; set-up: dose 32 mg/kg, route oral; details: in vivo, 0.25 h
Rattus norvegicus [41] = assay: Hypoglycemic activity in glucose loaded Sprague-Dawley rat assessed as reduction of glucose level per 100 mL of blood at 50 mg/kg, po measured at 0.5 hrs (reference value: 176 +/- 8 mg/100 mL); format: functional
Canis familiaris [42] = assay: Toxicity in dog assessed as respiratory depression at 150 mg/kg, im; format: organism-based, Canis lupus familiaris; set-up: dose 150 mg/kg, route intramuscular; details: in vivo
Rattus norvegicus [43] = assay: Hypoglycemic activity in fasted Sprague-Dawley rat assessed as reduction of blood glucose level at 88 mg/kg, po measured at 1 hr relative to control; format: functional; set-up: scale not given: the % may be the effect or the level left
Mus musculus [44] = assay: Toxicity in Swiss-Webster mouse assessed as mortality at 75 mg/kg, sc; format: organism-based; set-up: dose 75 mg/kg, route subcutaneous; details: in vivo
Canis familiaris [45] = assay: Toxicity in nalorphine-treated dog assessed as reduction of pulmonary ventilation rate at 100 mg/kg, im measured within 5 mins; format: organism-based, Canis lupus familiaris; set-up: dose 100 mg/kg, route intramuscular; details: in vivo
Rattus norvegicus [46] = assay: Narcotic analgesic activity in sc dosed fed Sprague-Dawley rat measured at 30 mins by D'Amour-Smith tail-flick test; format: functional

## COC(=O)[C@H]1C[C@H]2CC[C@H]([C@H]1c1cccs1)N2C.Cl (racemic)
Rattus norvegicus [1]
  Activity: 24%
Rattus norvegicus [2]
  Activity: 40%
Rattus norvegicus [3]
  Activity: 32%
Mus musculus [4]
  ED50: 35 mg/kg
Rattus norvegicus [5]
  Activity: 34%
Rattus norvegicus [6]
  Activity: 53%
Rattus norvegicus [7]
  Activity: 63%
Rattus norvegicus [8]
  Activity: 55%
Rattus norvegicus [9]
  Activity: Toxic
Rattus norvegicus [10]
  Activity: 38%
Rattus norvegicus [11]
  Activity: 37%
Rattus norvegicus [12]
  Activity: Non-toxic
Rattus norvegicus [13]
  Activity: 20%
Rattus norvegicus [14]
  Activity: 45%
Canis familiaris [15]
  Activity: Non-toxic
Rattus norvegicus [16]
  Activity: 65%
Rattus norvegicus [17]
  Activity: 22%
Rattus norvegicus [18]
  ED50: 18.6 mg/kg
Canis familiaris [19]
  Activity: Non-toxic
Rattus norvegicus [20]
  Activity: 50%
Mus musculus [21]
  ED50: 138 mg/kg
Rattus norvegicus [22]
  Activity: 27%
Canis familiaris [23]
  Activity: 65%
[24]
  Drug metabolism: metabolite_detected
Rattus norvegicus [25]
  ED50: 29 mg/kg
Rattus norvegicus [26]
  Activity: 43%
Rattus norvegicus [27]
  Activity: 100 mg
Rattus norvegicus [28]
  Activity: Non-toxic
Mus musculus [29]
  Activity: Non-toxic
Rattus norvegicus [30]
  ED50: 83 mg/kg
Canis familiaris [31]
  Activity: Non-toxic
Canis familiaris [32]
  Activity: 40%
Canis familiaris [33]
  Activity: Non-toxic
Rattus norvegicus [34]
  Activity: 62%
Rattus norvegicus [35]
  Activity: Non-toxic
Rattus norvegicus [36]
  Activity: 55%
Mus musculus [37]
  ED50: 12 mg/kg
Rattus norvegicus [38]
  Activity: 40%
Rattus norvegicus [39]
  Activity: 104 mg
Rattus norvegicus [40]
  Activity: Non-toxic
Rattus norvegicus [41]
  Activity: 172 mg
Canis familiaris [42]
  Activity: Non-toxic
Rattus norvegicus [43]
  Activity: 38%
Mus musculus [44]
  Activity: Non-toxic
Canis familiaris [45]
  Activity: Non-toxic
Rattus norvegicus [46]
  ED50: 100 mg/kg
